In article PMC8147254, “Efflux at the Blood-Brain Barrier Reduces the Cerebral Exposure to Ochratoxin A, Ochratoxin α, Citrinin and Dihydrocitrinone” (Toxins, 2021):

Experiments:
[1] = system: PBCEC; conditions: 10 µM
[2] = system: PBCEC; type: cell-based, porcine; conditions: levels higher than 100 µM; data not shown
Experimental: In order to study the barrier integrity PBCEC were incubated with 1 µM OTA, OTα, CIT and DHCIT in the apical compartment (blood side) of Transwell® filter inserts for 48 h. The TEER values as well as the electrical capacitance (cCL) were monitored by cellular impedance spectroscopy (Figure 4A,B). As a negative control the permeability of […] was measured after 48 h. Sucrose is not transported by any cellular transport protein and represents a marker for an intact BBB.
For barrier integrity, TEER values were monitored using a cellZscope® cellular impedance spectrometer (nanoAnalytics, Münster, Germany). […]. The detailed protocols can be found in the Supplementary Materials. […]
6.1. Cellular impedance spectroscopy
To monitor the barrier integrity during all transfer studies, the transendothelial electrical resistance (TEER) was measured with a cellZscope® cellular impedance spectrometer (nanoAnalytics, Münster, Germany) using a module suitable for 24 Transwell® filter inserts. After the mycotoxins were added to the cell culture medium, TEER was analyzed until the end of the experiment (48 h). The waiting time after each run was set to 10 min, resulting in 60 scans per 48 h.
The results were normalized to the TEER values of the first impedance spectrum of each well. Data processing was performed using the cellZscope 1.3.4 software (nanoAnalytics, Münster, Germany).

Row | SMILES | cellular viability (dehydrogenase activity) compared to the negative control [1] | effect on PBCEC barrier integrity [2]
1 | CC(=O)OC[C@]12C[C@H](OC(=O)CC(C)C)C(C)=C[C@H]1O[C@@H]1[C@H](O)[C@@H](OC(C)=O)[C@@]2(C)[C@]12CO2 [T-2 toxin, reference compound] | 2 ± 1% | –
2 | CCCN(CCC)S(=O)(=O)c1ccc(C(=O)O)cc1 [probenecid, 4-(N,N-dipropylaminosulfonyl)benzoic acid, reference compound] | – | impaired the PBCEC barrier integrity
